Assay results as given in PubChem BioAssay AID488870 (Broad Institute, 2010).
Active and inactive are the calls of the source.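 The calls were made as follows: active = a drop in nitrite signal whose fitted half-maximal concentration is at most ten times the top tested dose; inconclusive = flat fit with 30 to 70% inhibition, or poor curve fit; inactive = the rest.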

Test system: not listed separately
Test: suppression of NO production in INS-1E cells – cell-based, Griess absorbance, dry powder, set 3, dose response (AID 488870)
Settings: INS-1E cytokine-induced nitrite, Griess absorbance, 48 h; at 19.5 µM (top of the series)

Row | SMILES | activity change, negative = inhibition
1 | COc1ccc(S(=O)(=O)N(C)C[C@@H]2Oc3c(NS(=O)(=O)c4ccc(F)cc4)cccc3C(=O)N([C@@H](C)CO)C[C@H]2C)cc1 | 9.8% (inactive)
2 | CNC[C@@H]1Oc2c(NC(=O)Nc3cccc4ccccc34)cccc2C(=O)N([C@@H](C)CO)C[C@H]1C | 3.1% (inactive)
3 | C[C@@H]1CN([C@@H](C)CO)C(=O)c2cccc(NC(=O)Nc3cccc4ccccc34)c2O[C@H]1CN(C)C(=O)Nc1ccccc1 | -16.1% (inactive)
4 | C[C@@H]1CN([C@@H](C)CO)C(=O)c2cccc(NC(=O)Nc3ccccc3)c2O[C@H]1CN(C)S(=O)(=O)c1ccc(Cl)cc1 | -8% (inactive)
5 | COc1ccc(S(=O)(=O)N(C)C[C@@H]2Oc3c(NC(=O)c4ccc(-c5nccs5)cc4)cccc3C(=O)N([C@@H](C)CO)C[C@H]2C)cc1 | -2.29% (inactive)
6 | COc1ccc(S(=O)(=O)N(C)C[C@@H]2Oc3c(NC(=O)C4CCCCC4)cccc3C(=O)N([C@@H](C)CO)C[C@H]2C)cc1 | -0.334% (inactive)
7 | COc1ccc(S(=O)(=O)N(C)C[C@@H]2Oc3c(NC(=O)Nc4cccc5ccccc45)cccc3C(=O)N([C@@H](C)CO)C[C@@H]2C)cc1 | -1.85% (inactive)
8 | COc1ccc(S(=O)(=O)N(C)C[C@H]2Oc3c(NC(=O)Nc4cccc5ccccc45)cccc3C(=O)N([C@H](C)CO)C[C@H]2C)cc1 | -1.83% (inactive)
9 | COc1ccc(S(=O)(=O)N(C)C[C@@H]2Oc3c(NC(=O)Nc4cccc5ccccc45)cccc3C(=O)N(C(C)C)C[C@H]2C)cc1 | -11.1% (inactive)
10 | C[C@@H]1CN([C@@H](C)CO)C(=O)c2cccc(NS(=O)(=O)c3ccccc3)c2O[C@H]1CN(C)Cc1ccc(C(F)(F)F)cc1 | -12.5% (inactive)
11 | COc1ccc(S(=O)(=O)N(C)C[C@@H]2Oc3c(NC(=O)Nc4c(C)noc4C)cccc3C(=O)N([C@@H](C)CO)C[C@H]2C)cc1 | -4.75% (inactive)
12 | C[C@@H]1CN([C@@H](C)CO)C(=O)c2cccc(NC(=O)Nc3cccc4ccccc34)c2O[C@H]1CN(C)S(=O)(=O)c1ccc2c(n1)N(C)CCO2 | -13.9% (inactive)
13 | C[C@@H]1CN([C@@H](C)CO)C(=O)c2cccc(NC(=O)Nc3ccc(F)cc3)c2O[C@H]1CN(C)S(=O)(=O)c1ccc(Cl)cc1 | -9.62% (inactive)
14 | Cc1noc(C)c1NC(=O)N(C)C[C@@H]1Oc2c(NC(=O)Nc3cccc4ccccc34)cccc2C(=O)N([C@@H](C)CO)C[C@H]1C | -7.11% (inactive)
15 | Cc1ccc(S(=O)(=O)N(C)C[C@@H]2Oc3c(NC(=O)Nc4cccc5ccccc45)cccc3C(=O)N([C@H](C)CO)C[C@H]2C)cc1 | -10.1% (inactive)
16 | C[C@@H]1CN([C@@H](C)CO)C(=O)c2cccc(NC(=O)Nc3cccc4ccccc34)c2O[C@H]1CN(C)C(=O)Nc1ccc(F)cc1 | -13.6% (inactive)

Test system: INS-1E cytokine-induced nitrite, Griess absorbance, 48 h
Test: as above
Settings: not given

Row | SMILES | AC50
17 | Cc1ccc(S(=O)(=O)N(C)C[C@H]2Oc3c(NC(=O)Nc4cccc5ccccc45)cccc3C(=O)N([C@@H](C)CO)C[C@@H]2C)cc1 | > 19.5 µM (inactive)
18 | C[C@@H]1CN([C@H](C)CO)C(=O)c2cccc(NC(=O)Nc3ccccc3)c2O[C@H]1CN(C)S(=O)(=O)c1ccc(F)cc1 | > 19.5 µM (inactive)
